Laboratory results published in patent US12691083B2, “Pharmaceutical composition for preventing or treating attention deficit/hyperactivity disorder, containing KDS2010 as active ingredient” (DANKOOK UNIVERSITY CHEONAN CAMPUS INDUSTRY ACADEMIC …, priority 2021, dated 2026).

Legend:
Assay type in all cases: in vivo
[1] = test system: Git1 gene-deficient hetero (+/−) mice; assay: Passive avoidance test (fear memory learning ability); conditions: Git1 hetero type (+/−) mice, KDS2010 orally 10 mg/kg per day
Method: The hippocampus, one of the regions that affects ADHD, is responsible for functions related to learning and memory. In order to evaluate the effect of ameliorating ADHD upon administration of KDS2010, KDS2010 was administered to Git1 gene-deficient hetero (+/−) mice, an animal model with ADHD, and a passive avoidance test that enables evaluation on a fear memory learning ability in relation to the function of the dentate gyrus in the hippocampus was conducted. The passive avoidance test was performed using a common passive avoidance test device which was a shuttle box divided into two rooms, one of which was equipped with a bright light bulb to create a bright environment that the laboratory animals dislike, while the other room was designed not to allow light to enter such that the laboratory animals may feel comfortable. […] Immediately thereafter, after 24 hours and after 48 hours, the latency time of entering a dark room without an electric shock is measured up to 90 seconds (retention tests 1, 2, and 3).
The KDS2010 was orally administered at a concentration of 10 mg/kg per day. The amount (mg) of each drug was calculated according to the weight (kg) of each mouse, followed by dissolution in 100 μL of drinking water. […] The daily amount of water consumed by adult mice older than 7 weeks was administered at a calculated dose of 10 ml/day. […]

[2] = test system: Git1 hetero type (+/−) mice; assay: Open field test (hyperactivity, locomotor activity); conditions: Git1 hetero type (+/−) mice administered KDS2010; movement measured for 10 minutes; FIG. 4
Method: (§1) The KDS2010 was orally administered at a concentration of 10 mg/kg per day. The amount (mg) of each drug was calculated according to the weight (kg) of each mouse, followed by dissolution in 100 μL of drinking water. Oral administration was performed once a day. The daily amount of water consumed by adult mice older than 7 weeks was administered at a calculated dose of […]. The drug was administered 3 days prior to passive avoidance, and the drug administration was continued during the passive avoidance test. KDS2010 is an inhibitor against monoamine oxidase B (MAOB) and may reduce GABA levels that are increased in astrocytes of the hippocampus.
ADHD is diagnosed based on two main tendencies including a hyperactive type and an inattention type, but the two symptoms don't necessarily occur together. From this point of view, hyperactivity-related abilities should not be impaired in the course of treatment for inattention, which has been determined through an open field test that enables measurement of hyperactivity.
An open field test was performed to assess whether there is a behavioral improvement. […] The mice were placed in the center of an open field test cage (30×30×30 cm), and its movement was measured for 10 minutes. The measured videos were analyzed for locomotor activity through ANYmaze.

[3] = test system: Git1 hetero type (+/−) mice; assay: Self-grooming test; conditions: Git1 hetero type (+/−) mice administered KDS2010; recorded for 10 minutes; compared with wild type (+/+); FIG. 5
Method: as §1
For a self-grooming test, mice were placed in a plastic cylinder with a diameter of 15 cm and a height of 35 cm. In the plastic cylinder, mice were habituated for about 20 minutes, and then self-grooming behavior was recorded for 10 minutes. The duration of the self-grooming behavior was checked through the recorded video, and if there was an interval of 5 seconds, it was measured as different self-grooming. The number of each different self-grooming behavior was expressed as each different self-grooming bout.

## C[C@H](NCc1ccc(-c2ccc(C(F)(F)F)cc2)cc1)C(N)=O [KDS2010, (S)-2-(((4′-(trifluoromethyl)-[1,1′-biphenyl]-4-yl)methyl)amino)propenamide]
[1]; from 3 days prior to and during test, compared with wild type (+/+), FIG. 2
  fear memory learning ability: recovery in the fear memory learning ability, similar to the wild type (+/+) mice
[1]; retention trial, compared with wild type
  entry time (time to enter the dark room), retention: entry time recovered closer to the wild type
[2]
  effect on hyperactivity: no effect was derived on hyperactivity
[3]
  self-grooming duration: decrease to a value similar to the wild type (+/+) mice
